Reference: patent US20260070921A1, “COMPOUND, ENDOPLASMIC RETICULUM STRESS INHIBITOR, PHARMACEUTICAL PRODUCT, OPHTHALMIC AGENT, EYE DROPS, COMPOSITION, AND METHOD FOR PRODUCING COMPOUND” (KYOTO UNIVERSITY, priority 2022, published 2026)

Legend:
[1] = Dynamic light scattering (DLS) of self-assemblies; assay type: physicochemical
From the text: In the graphs on the left, the vertical axis “Z-ave. (nm)” represents the average particle size. In the graphs on the right, the vertical axis “Derived Count Rate (kcps)” represents the derived count rate. The horizontal axis represents the molar concentration (PM) of PBS (pH of 7.4) and DMEM (10% FBS). Error bars represent s.d. (n=3).
“Z-ave.” represents the average size of particles. Error bars represent s.d. (n=3).
“Z-average” represents the average size of particles. Error bars represent s.d. (n=3).

HEK293 cells [2] = assay: Tunicamycin assay using an autophagy or proteasome inhibitor; assay type: cell-based; settings: pre-incubation 16 h, tunicamycin 5.0 μg/mL 48 h
Description: Cellular protein aggregates are often cleared by cellular mechanisms, such as autophagy and ubiquitin-proteasome system. To examine the importance of these proteolytic pathways in the activity of compounds 1 and 6, their ability to inhibit tunicamycin-induced cytotoxicity in the presence of an autophagy or proteasome inhibitor (bafilomycin A1 or MG132, respectively) was measured. FIG. 9 is a graph showing the results of a tunicamycin assay using an autophagy or proteasome inhibitor. Cells were pre-incubated with compound 1 or compound 6 for 16 hours and then treated with tunicamycin (5.0 μg/mL) in the presence or absence of a specified substance for 48 hours. FIG. 9(A) is a graph showing measurements in the presence or absence of bafilomycin A1 (Baf A1, autophagy inhibitor). FIG. 9(B) is a graph showing measurements in the presence or absence of MG132 (proteasome inhibitor). Error bars represent s.d. (n=3). Statistical analysis was performed according to the one-way ANOVA and Dunnett's test. *P<0.05; n.s.: not significant. […] The concentrations used of the inhibitors were confirmed to be non-toxic to cells (FIGS. 31 and 32). To further study the role of autophagy, autophagy-deficient atg7^−/− and p62^−/− mouse embryonic fibroblasts (MEFs) were subjected to a tunicamycin assay. FIG. 10 is a graph showing the results of the tunicamycin assay using the autophagy-deficient cells. Wild-type (wt), atg7^−/−, or p62^−/− mouse embryonic fibroblasts (MEFs) were treated with molecule 1 (100 μM) or molecule 6 (25 μM) for 18 hours and then incubated with tunicamycin (5.0 μg/mL) for 48 hours. Error bars represent s.d. (n=3). Statistical analysis was performed according to the one-way ANOVA and Dunnett's test. *P<0.05, **P<0.01. ATG7 is an E1-like enzyme important for phagophore expansion, and p62 is an autophagy receptor for ubiquitinated substrates (Reference Material 20 below). Wild-type (wt), atg7^−/−, or p62^−/− MEF cells were treated with compound 1 or compound 6 for 18 hours, followed by treatment with tunicamycin (5.0 μg/mL) for 48 hours. […] Nat Rev Mol Cell Bio 2018, 19 (6), 349-364. https://doi.org/10.1038/s41580-018-0003-4.

denatured BSA-flu = denatured BSA-flu (Bos taurus, UniProt P02769); assay: Co-assembly with fluorescently labeled BSA (BSA-flu), confocal imaging; assay type: binding; settings: 25° C. 19 h, excess unlabeled BSA 2.0 mg/mL
Description: To prepare denatured BSA-flu, a solution of BSA-flu (1.1 mg/mL) in PBS (pH of 7.4) was incubated at 80° C. for 1 hour. Native or denatured BSA-fluorescein (final concentration: 0.1 mg/mL) was added to a solution of compound 1 (100 μM) or compound 6 (25 μM) in PBS (pH of 7.4) containing 2.0 mg/mL BSA. The mixture was incubated at 25° C. for 19 hours and then images were taken with a CV1000 confocal microscope. The fluorescence intensity of the co-assemblies was quantified from the images obtained using ImageJ software.

HEK293 cells [3] = assay: Tunicamycin assay (cell viability under ER stress, WST-8); assay type: cell-based; parameters: key to Efficacy 5 μM (ER stress inhibition activity) / Efficacy 25 μM (ER stress inhibition activity) / Efficacy 100 μM (ER stress inhibition activity): “−” indicates no activity; “+” indicates weak activity; “++” indicates strong activity; settings: for EC50: Homo sapiens, HEK293, read-out: EC50 (dose-response curve, Hill equation); for EC50 / Concentration at which activity was shown: tunicamycin 5.0 μg/mL 48 h
Description: HEK293 cells were seeded in 96-well plates ([…]) and incubated at 37° C. for 2 hours. The medium was then replaced with 100 μL of DMEM ([…]) containing self-assembling chemicals (20 or more compounds, including compounds of the present disclosure) and 1% DMSO. After incubation with any one of compounds 1 to 6 at a given concentration for 12 to 18 hours, HEK293 cells were treated with tunicamycin (5 μg/mL) or thapsigargin (10 μM) for 48 hours, and cell viability was measured using a WST-8 cell counting kit (Dojindo Laboratories).
Produced compounds XD8 to XD28 were subjected to a tunicamycin assay in the same manner as in Examples 1 to 9. Specifically, HEK293 cells were first seeded in a 96-well plate (1×10^4 cells/well) and incubated at 37° C. for 2 hours. The medium was then replaced with 100 μL of DMEM (10% FBS) containing a self-assembling chemical (each of compounds XD8 to XD28) and […]. After incubation with any of compounds XD8 to XD28 at a concentration of 5.0 μM, 25 μM, or 100 μM for 12 to 18 hours, HEK293 cells were treated with tunicamycin (5 μg/mL) for 48 hours, followed by measuring cell viability by using a WST-8 cell counting kit (Dojindo Laboratories).

BSA = BSA (Bos taurus, UniProt P02769); assay: Native PAGE analysis of heat-induced BSA denaturation; assay type: biochemical; settings: 75° C. 1 h; compounds 100 μM, PBA 10 mM
Description: Samples were subjected to native PAGE analysis using 8% acrylamide gels in 0.1 M Tris-HCl, pH of 7.8 (cathode) and 68 mM glycine, 53 mM Tris-HCl, pH of 8.9 (anode). After staining the gel with Coomassie Brilliant Blue, images were taken using an ImageQuant LAS500 imager (Cytiva).

Sequence of denatured BSA-flu (P02769 25-607): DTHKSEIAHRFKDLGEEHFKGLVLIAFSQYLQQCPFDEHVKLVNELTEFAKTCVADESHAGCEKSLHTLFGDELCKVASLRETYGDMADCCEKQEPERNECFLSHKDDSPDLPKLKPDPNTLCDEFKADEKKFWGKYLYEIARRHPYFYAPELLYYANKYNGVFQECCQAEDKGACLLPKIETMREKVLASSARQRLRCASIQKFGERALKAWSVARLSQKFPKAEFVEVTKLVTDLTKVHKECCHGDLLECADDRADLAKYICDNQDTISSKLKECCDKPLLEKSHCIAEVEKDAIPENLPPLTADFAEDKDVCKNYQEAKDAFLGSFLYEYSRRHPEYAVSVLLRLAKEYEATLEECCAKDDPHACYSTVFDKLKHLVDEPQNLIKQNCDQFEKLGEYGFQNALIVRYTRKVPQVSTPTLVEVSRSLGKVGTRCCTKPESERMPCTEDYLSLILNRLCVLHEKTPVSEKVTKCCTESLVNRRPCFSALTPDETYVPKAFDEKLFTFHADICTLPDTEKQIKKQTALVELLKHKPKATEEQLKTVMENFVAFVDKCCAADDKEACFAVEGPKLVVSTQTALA
Sequence of BSA (P02769 25-607): as above

## NS(=O)(=O)c1ccc(Nc2ccn3c(n2)nc(=O)c2sc4cc(F)ccc4c23)cc1 [compound 1]
[1]; DMEM (10% FBS), 100 μM
  Average size of the assemblies (diameter): ~200 nm
[1]; PBS (pH of 7.4), 100 μM
  Average size of the assemblies (diameter): about 700 nm
HEK293 cells [2]
  Activity in the presence of MG132: no significant effect
  Activity in the presence of bafilomycin A1: partially canceled
Denatured BSA-flu
  Co-assembly with native or denatured BSA-flu: selectively formed co-assemblies with heat-denatured BSA
HEK293 cells [3]; 100 μM pre-incubation 12 h, then thapsigargin 10 μM or tunicamycin 5.0 μg/mL 48 h
  Cell viability under ER stress: enhanced cell viability under ER stress conditions
HEK293 cells [3]
  EC50: 38.1 µM
  Concentration at which activity was shown: 100 µM
BSA
  Inhibition of heat-induced denaturation of BSA: does not exhibit activity to inhibit the thermal denaturation of BSA

## COc1ccc2c(c1)sc1c(=O)nc3nc(Nc4ccc(S(N)(=O)=O)cc4)ccn3c12 [compound 6]
[1]; cell culture medium, 25 μM
  Average size of the assemblies (diameter): 130 nm
HEK293 cells [2]
  Activity in the presence of MG132: no significant effect
  Activity in the presence of bafilomycin A1: partially canceled
Denatured BSA-flu
  Co-assembly with native or denatured BSA-flu: selectively formed co-assemblies with heat-denatured BSA
HEK293 cells [3]
  EC50: 13.7 µM
  Concentration at which activity was shown: 25 µM
HEK293 cells [3]; compound 5 μM 12 to 18 h, then tunicamycin 5 μg/mL 48 h
  Efficacy 5 μM (ER stress inhibition activity): −
HEK293 cells [3]; compound 25 μM 12 to 18 h, then tunicamycin 5 μg/mL 48 h
  Efficacy 25 μM (ER stress inhibition activity): ++
HEK293 cells [3]; compound 100 μM 12 to 18 h, then tunicamycin 5 μg/mL 48 h
  Efficacy 100 μM (ER stress inhibition activity): ++
BSA
  Inhibition of heat-induced denaturation of BSA: does not exhibit activity to inhibit the thermal denaturation of BSA
